# Measurements taken from US4740233A, “Substituted 1,2,4-triazolo[1,5-a]-pyrimidine-2-sulfonamides and compositions and methods of controlling undesired vegetation and suppressing the nitrification of ammonium nitrogen in soil” (The Dow Chemical Company, priority 1986, dated 1988).
# How the values were obtained:
# sugar beet = assay: Preemergent control of plant species; assay type: in vivo, Beta saccharifera; conditions: Beta vulgaris, pre-emergence, 336 h; 0.25 lb/acre; read-out: percent preemergent control
# In short: (§1)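 Growth reduction relative to untreated plants of the same species, assessed two weeks after treatment, defines the control value. Compositions, mostly aqueous emulsions, were deposited uniformly on seeded greenhouse soil beds at the tabulated rates, with a water-treated bed as reference.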
# yellow foxtail = assay: Preemergent control of plant species; assay type: in vivo, Setaria lutescens; conditions: Setaria, pre-emergence, 336 h; 0.25 lb/acre; read-out: percent preemergent control
# In short: as §1
# velvetleaf = assay: Preemergent control of plant species; assay type: in vivo, Abutilon theophrasti; conditions: Abutilon theophrasti, pre-emergence, 336 h; 0.25 lb/acre; read-out: percent preemergent control
# In short: as §1
# rape = assay: Preemergent control of plant species; assay type: in vivo, Brassica napus; conditions: Brassica napus, pre-emergence, 336 h; 0.25 lb/acre; read-out: percent preemergent control
# In short: as §1
# annual morning glory = assay: Preemergent control of plant species; assay type: in vivo, Ipomoea spp.; conditions: Ipomoea, pre-emergence, 336 h; 0.25 lb/acre; read-out: percent preemergent control
# In short: as §1
# soybean = assay: Preemergent control of plant species; assay type: in vivo, Glycine max.; conditions: Glycine max, pre-emergence, 336 h; 0.25 lb/acre; read-out: percent preemergent control
# In short: as §1
# wheat = assay: Preemergent control of plant species; assay type: in vivo, Triticum aestivum; conditions: Triticum aestivum, pre-emergence, 336 h; 0.25 lb/acre; read-out: percent preemergent control
# In short: as §1
# corn = assay: Preemergent control of plant species; assay type: in vivo, Zea mays; conditions: Zea mays, pre-emergence, 336 h; 0.25 lb/acre; read-out: percent preemergent control
# In short: as §1
# barnyardgrass = assay: Preemergent control of plant species; assay type: in vivo, Echinochloa crusgalli; conditions: Echinochloa crus-galli, pre-emergence, 336 h; 0.25 lb/acre; read-out: percent preemergent control
# In short: as §1
# rice = assay: Preemergent control of plant species; assay type: in vivo, Oryza sativa; conditions: Oryza sativa, pre-emergence, 336 h; 0.25 lb/acre; read-out: percent preemergent control
# In short: as §1
# jimsonweed = assay: Preemergent control of plant species; assay type: in vivo, Datura stramonium; conditions: Datura stramonium, pre-emergence, 336 h; 0.25 lb/acre; read-out: percent preemergent control
# In short: as §1
# cotton = assay: Preemergent control of plant species; assay type: in vivo, Gossypium spp.; conditions: Gossypium hirsutum, pre-emergence, 336 h; 0.25 lb/acre; read-out: percent preemergent control
# In short: as §1
# wild oats = assay: Preemergent control of plant species; assay type: in vivo; conditions: Avena fatua, pre-emergence, 336 h; 0.25 lb/acre; read-out: percent preemergent control
# Protocol: The seeds of various species of plants were planted in beds of good agricultural soil in a greenhouse. A number of compositions of the present invention, generally in the nature of an aqueous emulsion, were applied at rates listed in the table so as to deposit a predetermined amount of active ingredients uniformly throughout the surface of the bed. Another seed bed was treated only with water to serve as a control. After treatment the seed beds were maintained for two weeks under greenhouse conditions conducive for good plant growth and watered as necessary. Control refers to the reduction in growth compared to the observed results of the same untreated species.
# yellow nutsedge = assay: Preemergent control of plant species; assay type: in vivo, Cyperus esculentus; conditions: Cyperus, pre-emergence, 336 h; 0.25 lb/acre; read-out: percent preemergent control
# In short: as §1
# sorghum = assay: Preemergent control of plant species; assay type: in vivo, Sorghum vulgare; conditions: Sorghum, pre-emergence, 336 h; 0.25 lb/acre; read-out: percent preemergent control
# In short: as §1
# johnson grass = assay: Preemergent control of plant species; assay type: in vivo, Sorghum halepense; conditions: Sorghum halepense, pre-emergence, 336 h; 0.25 lb/acre; read-out: percent preemergent control
# In short: as §1
# [1] = test system: nitrification of ammonium nitrogen; assay: Suppression of nitrification of ammonium nitrogen in soil; conditions: 27° C.
# In short: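 Soil (20 g) moistened to its 1/3 bar tension value, mixed with test chemical and incubated sealed for two weeks at 27° C. Nitrate extracted with ammonium sulfate solution and measured by nitrate-specific ion electrode; value given as % NH4-N remaining.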
Compound,plant injury at 280.212 g/ha (sugar beet) [%],pest or weed control at 280.212 g/ha (yellow foxtail) [%],pest or weed control at 280.212 g/ha (velvetleaf) [%],plant injury at 280.212 g/ha (rape) [%],pest or weed control at 280.212 g/ha (annual morning glory) [%],plant injury at 280.212 g/ha (soybean) [%],plant injury at 280.212 g/ha (wheat) [%],plant injury at 280.212 g/ha (corn) [%],pest or weed control at 280.212 g/ha (barnyardgrass) [%],plant injury at 280.212 g/ha (rice) [%],pest or weed control at 280.212 g/ha (jimsonweed) [%],plant injury at 280.212 g/ha (cotton) [%],pest or weed control at 280.212 g/ha (wild oats) [%],pest or weed control at 280.212 g/ha (yellow nutsedge) [%],plant injury at 280.212 g/ha (sorghum) [%],pest or weed control at 280.212 g/ha (johnson grass) [%],% NH4-N Remaining After 2 Weeks Incubation ([1]; 0.06 ppm) [%],% NH4-N Remaining After 2 Weeks Incubation ([1]; 0.25 ppm) [%],% NH4-N Remaining After 2 Weeks Incubation ([1]; 1 ppm) [%],% NH4-N Remaining After 2 Weeks Incubation ([1]; 4 ppm) [%]
COC(=O)c1cccc(C)c1NS(=O)(=O)c1nc2nc(OC)c(C)cn2n1 [Compound 216],100,100,100,20,90,70,100,100,75,90,100,100,100,70,100,100,–,–,–,–
Cc1cnc2nc(S(=O)(=O)Nc3c(Cl)ccc(C)c3Cl)nn2c1 [Compound 194],100,0,90,100,90,70,0,0,0,0,95,90,0,95,30,0,–,–,–,–
Cc1ccnc2nc(S(=O)(=O)Nc3c(F)cccc3F)nn12 [Compound 185],98,–,100,100,80,70,0,0,20,20,90,98,0,0,90,90,–,–,–,–
COc1nc2nc(S(=O)(=O)Nc3c(F)cccc3F)nn2cc1C [Compound 214],100,100,100,100,100,100,100,100,100,100,100,100,100,100,100,100,–,–,–,–
Cc1ccn2nc(S(=O)(=O)N(C(=O)CC(C)C)c3c(F)cccc3F)nc2n1 [Compound 284],100,100,100,100,80,20,100,85,100,100,100,100,90,100,100,100,–,–,–,–
CCOCCOC(=O)c1cccc(C)c1NS(=O)(=O)c1nc2nc(C)cc(C)n2n1 [Compound 72],90,50,60,100,10,90,90,90,30,70,100,40,90,100,80,50,–,–,–,–
CC(=O)c1cccc(C)c1NS(=O)(=O)c1nc2nc(C)ccn2n1 [Compound 166],100,80,100,100,95,80,20,10,80,40,90,100,30,100,80,20,–,–,–,–
Cc1ccn2nc(S(=O)(=O)N(C(=O)c3ccccc3)c3c(F)cccc3F)nc2n1 [Compound 290],100,100,100,100,100,70,95,90,100,100,100,100,70,80,100,100,–,–,–,–
"CC(=O)OCc1cccc(Cl)c1NS(=O)(=O)c1nc2nc(C)cc(C)n2n1 [Compound 94, 5,7-dimethyl-N-(2-acetoxymethyl-6-chlorophenyl)-1,2,4-triazolo[1,5-a]pyrimidine-2-sulfonamide]",0,0,0,100,0,50,–,0,0,0,0,60,0,0,0,0,28,48,56,84
Cc1ccn2nc(S(=O)(=O)Nc3c(C)cccc3C#N)nc2n1 [Compound 165],90,90,30,75,60,10,0,0,60,0,90,90,0,90,60,0,–,–,–,–
Cc1ccn2nc(S(=O)(=O)N(C(=O)C3CC3)c3c(F)cccc3F)nc2n1 [Compound 289],100,100,100,100,100,50,80,95,100,–,100,100,100,100,100,100,–,–,–,–
